The source of these data is ChEMBL document CHEMBL3098116, “Synthesis and biological evaluation of the pirfenidone derivatives as antifibrotic agents” (Bioorg Med Chem Lett, 2014).

Each structure is given as a SMILES string.

What is called IC50 is the point on the concentration scale where inhibition reaches its midpoint.

The test system of one assay is MRC5. Briefly: Antifibrotic activity in human MRC5 cells assessed as inhibition of cell growth after 24 hrs by MTT assay. Particulars: MRC5, 24 h. The format is functional, cell-based. In general terms: Formazan colour is commonly taken as a measure of viable cells.
Assay [1] has as its target T1, Mitogen-activated protein kinase 14 (Homo sapiens, UniProt Q16539). Briefly: Inhibition of p38alpha (unknown origin) up to 60 mins by ADP-Glo assay. A general note: In ADP-Glo the light output rises with the ADP produced.
For assay [2], the target named is T1, Mitogen-activated protein kinase 14. Briefly: Ratio of pirfenidone IC50 for compound IC50 for p38alpha (unknown origin) up to 60 mins by ADP-Glo assay.

T1 sequence (Q16539 whole entry): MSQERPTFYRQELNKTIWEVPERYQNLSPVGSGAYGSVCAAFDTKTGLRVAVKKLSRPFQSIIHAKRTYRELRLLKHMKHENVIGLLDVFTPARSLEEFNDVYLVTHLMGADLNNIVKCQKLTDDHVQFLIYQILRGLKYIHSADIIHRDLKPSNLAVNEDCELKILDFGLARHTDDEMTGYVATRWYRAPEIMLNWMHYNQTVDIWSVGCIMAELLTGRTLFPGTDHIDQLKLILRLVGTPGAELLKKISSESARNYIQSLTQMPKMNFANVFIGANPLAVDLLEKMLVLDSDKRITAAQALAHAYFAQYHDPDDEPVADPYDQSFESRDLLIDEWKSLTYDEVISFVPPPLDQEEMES

Consider `CCN(CC)CCCCOc1ccc(-n2cc(C)ccc2=O)cc1`, for which the IC50 in the assay on MRC5 is 2.16 mM.
For the compound `Cc1ccc(=O)n(-c2ccc(OCCCCN(C)C)cc2)c1`, the IC50 with MRC5 stood at 1.8 mM.
With `Cc1ccc(=O)n(-c2ccc(OCCCCCN3CCCCC3)cc2)c1`, the IC50 in assay [1] is 0.0162 mM; in the assay on MRC5 it was 3.67 mM.
On the same counts, the results for `Cc1ccc(=O)n(-c2ccc(OCCN3CCCCC3)cc2)c1` are 0.0543 mM and 2.48 mM.
Consider `CCN(CC)CCCOc1ccc(-n2cc(C)ccc2=O)cc1`, for which, in the assay with MRC5, the IC50 was found to be 2.1 mM.
On the same count and under the same terms, with `Cc1ccc(=O)n(-c2ccc(OCCCCCN3CCN(C)CC3)cc2)c1` the figure was 3.41 mM.
Turning to `Cc1ccc(=O)n(-c2ccc(OCCCCN3CCCC3)cc2)c1`, the IC50 with MRC5 is 1.77 mM.
`Cc1ccc(=O)n(-c2ccccc2)c1` [PIRFENIDONE]: the IC50 in assay [1] amounted to 0.165 mM; in the assay with MRC5, 14.4 mM.
On the same counts, the results for `Cc1ccc(=O)n(-c2ccc(OCCCCN3CCCCC3)cc2)c1` are 0.00521 mM and 3.29 mM.
As for `Cc1ccc(=O)n(-c2ccc(OCCCCN3CCOCC3)cc2)c1`, the IC50 with MRC5 came to 3.03 mM.
Same read-out and setting: the figure for `Cc1ccc(=O)n(-c2ccc(OCCCCCN3CCCC3)cc2)c1` is 1.47 mM; for `Cc1ccc(=O)n(-c2ccc(OCCCN3CCN(C)CC3)cc2)c1` it is 4.36 mM; for `Cc1ccc(=O)n(-c2ccc(OCCCCN3CCN(C)CC3)cc2)c1` it is 2.33 mM.
With `Cc1ccc(=O)n(-c2ccc(OCCN3CCOCC3)cc2)c1`, in the assay with MRC5, the IC50 came out at 7.64 mM.
Same read-out and setting: the figure for `Cc1ccc(=O)n(-c2ccc(OCCN3CCCC3)cc2)c1` is 3.78 mM; for `Cc1ccc(=O)n(-c2ccc(OCCN3CCN(C)CC3)cc2)c1` it is 1.36 mM; for `CCN(CC)CCOc1ccc(-n2cc(C)ccc2=O)cc1` it is 6.2 mM.
Still for that read-out and setting: the figure for `Cc1ccc(=O)n(-c2ccc(OCCCCCN(C)C)cc2)c1` is 2.98 mM; for `Cc1ccc(=O)n(-c2ccc(OCCCCCN3CCOCC3)cc2)c1` it is 2.59 mM.
On the same count and under the same terms, with `CCN(CC)CCCCCOc1ccc(-n2cc(C)ccc2=O)cc1` the figure was 4.35 mM; with `Cc1ccc(=O)n(-c2ccc(OCCCN3CCOCC3)cc2)c1`, 5.28 mM.
As to `Cc1ccc(=O)n(-c2ccc(OCCCN(C)C)cc2)c1`, the IC50 in assay [1] came out at 0.0142 mM; with MRC5, 5.22 mM.
With `Cc1ccc(=O)n(-c2ccc(OCCCN3CCCCC3)cc2)c1`, in assay [2], the Ratio IC50 worked out at 40. The IC50 in assay [1] worked out at 0.00407 mM; in the assay with MRC5, 2.55 mM.
Take `Cc1ccc(=O)n(-c2ccc(OCCN(C)C)cc2)c1`: the IC50 with MRC5 turned out to be 6.88 mM.
Turning to `Cc1ccc(=O)n(-c2ccc(OCCCN3CCCC3)cc2)c1`, in the assay on MRC5, the IC50 is 3 mM.
